“And” between values parts separate entries of the source, which are not always exact repeats. Equal entries are not always repeated.
Assays:
[1] = system: HBV-specific CD8+ T cells from CHB patient PBMCs; assay: HBV-specific CD8+ T cell expansion and recall response assay in CHB patient PBMCs (IFN-γ, granzyme B by flow cytometry); type: cell-based, human
Experimental: (§1) Assays PBMC Isolation from Whole Blood PBMCs were isolated from whole blood using a standard Ficoll® Paque gradient. Briefly, 25-30 mL of blood was gently overlaid on top of 15 mL Ficoll® Paque Plus solution (GE Healthcare, Chicago, Ill.) in a 50 mL Falcon tube, and centrifuged in an Allegra X-14R (Beckman Coulter, Indianapolis, Ind.) at 520 g for 20 minutes at 25° C. […] Next, the cells were centrifuged at 520 g for 5 minutes and red blood cells (RBC) lysed for 5 minutes at room temperature using RBC Lysis Buffer (eBioscience, San Diego, Calif.). […] PBMCs were either subsequently used for the T cell expansion assay, or were cryopreserved with 10% DMSO in PBS before further use. CD8^+ and CD4^+ T Cell 7-Day Expansion and Recall Response Assay
(§2) PBMCs were seeded at 2-4×10^5 cells/well in 96-well round bottom plates (Corning, N.Y.). […] PBMCs were incubated for 7 days at 37° C. with 5% CO2 in a humidified incubator. […] To inhibit protein transport, 1 μg/mL brefeldin. A solution (Sigma) was added to each well. After overnight incubation, cells were processed for immunostaining and flow cytometry as described herein.
(§3) Washed cells were resuspended in Live/Dead Aquamine Stain (Invitrogen) per manufacturer's instructions to determine the viability of the cells by flow cytometry. Live/Dead Aqua stained PBMCs were washed twice with FACS staining buffer (1% FBS in PBS), and then incubated with 50 μL of Fc blocking reagent (BD Biosciences, Franklin Lakes, N.J.) for 10 minutes at room temperature. A mixture of antibodies (50 μL/well) described in Table 6 were added to the blocking solution for surface staining, and PBMCs were incubated with the antibodies for 40 minutes at 4° C. […] Cells were washed twice with the permeabilization reagent included in the FoxP3 staining kit and incubated with antibodies for intracellular staining of IFN-γ and GrB (Table 6) at 1.0 μg/mL. After 1 hour incubation at 4° C., PBMCs were centrifuged and washed twice before being resuspended in FACS buffer. Stained PBMCs were analyzed by flow cytometry using a BD LSRFortessa X-20 Cell Analyzer (Becton Dickinson). BD Comp Beads (BD Biosciences) were used as compensation controls. CD8^+ and CD4^+ T cells were identified by gating on the live Aquamine^−CD3^+CD8^+ and Aquamine^−CD3^+CD4^+ PBMC population respectively.
(§4) Flow cytometry data was analyzed using FlowJo Flow Cytometry Analysis Software v10 (TreeStar, Ashland, Oreg.). Data was exported and statistical analysis was performed using GraphPad Prism v6 (GraphPad Software, La Jolla, Calif.). Statistical significance relative to the DMSO control was calculated by two-tailed, paired t-test.

[2] = system: HBV-specific CD4+ T cells from CHB patient PBMCs; assay: HBV-specific CD4+ T cell expansion and recall response assay in CHB patient PBMCs (IFN-γ, granzyme B by flow cytometry); type: cell-based, human
Experimental: as §1, §2, §3, §4

[3] = 650 nM compound 139 or 10 μg/mL durvalumab, PBMCs from 9 of the 14 CHB donors (FIG. 1B)

## COc1nc(-c2cccc(-c3cccc(-c4cnc(CNC[C@@H]5CCC(=O)N5)c(OC)n4)c3Cl)c2Cl)cnc1CNC[C@@H]1CCC(=O)N1 [compound 139]
[1]; 650 nM compound 139, HBV core peptide-stimulated PBMCs from 14 CHB donors, vs DMSO
  increase of granzyme B (GrB)+ CD8+ T cells: 1.2 fold
[1]; [3]
  increase of GrB+CD8+ T cells, comparison with durvalumab: 1.2 fold
  increase of IFN-γ+CD8+ T cells, comparison with durvalumab: 2.5 fold
[1]; FIG. 1A and FIG. 1B
  IFN-γ and Granzyme B Production in chronic hepatitis B (CHB) CD8+ T Cells: enhances
[1]; individual CHB donor, HBV core peptide-stimulated PBMCs, compound 139 650 nM
  % IFN-γ+ (IFN-γ+ CD8+ T cells): 0.94% and 0.41% and 0.61% and 0.90% and 0.30%
[2]; 650 nM compound 139, HBV core peptide-stimulated PBMCs from CHB donors, vs DMSO
  increase of granzyme B (GrB)+ CD4+ T cells: 1.8 fold
[2]; 650 nM compound 139 or 10 μg/mL durvalumab treated PBMCs
  frequency of CD4+ IFN-γ+ T cells: 2.5%
[2]; 650 nM compound 139 or 10 μg/mL durvalumab, DMSO 3.5%
  frequency of GrB+CD4+ T cells: 4.7%
[2]; FIG. 2A and FIG. 2B
  IFN-γ and Granzyme B Production in chronic hepatitis B (CHB) CD4+ T Cells: enhances

Reference: US11555029B2, “PD-1/PD-L1 inhibitors” (Gilead Sciences, Inc., priority 2018, dated 2023)
